Experimental data: US20070213359A1 (ACADIA Pharmaceuticals Inc., priority 2005, published 2007)
Read-outs that look alike come from different tables or passages of the source.

Key:
GHSR1a receptor = target: T1, GHSR1a receptor (Homo sapiens, UniProt Q92847); assay: 125I-Ghrelin binding assay
T1 construct: expressed in transfected cells; host or cells: HEK293 (membranes)
Description: Plasmid DNA containing the GHSR1a receptor (12.5 ug/dish) in 0.675 ml DMEM was transfected into the cells by mixing with 180 ul PolyFect, 15 min later mixing in 2.25 ml 10% CS/DMEM, and transferring the mixture into the dish. At 16-18 h post transfection, medium was replaced with 25 ml fresh 10% FCS/1% PSG/DMEM to each dish for another 18-20 h. At approximately 48 hours post-transfection, cells were harvested in ice-cold membrane buffer (20 mM HEPES, 6 mM MgCl2, 1 mM EDTA, pH to 7.2) using a cell scraper, and pelleted by centrifugation.
Pelleted cells were added to a nitrogen cavitation chamber and 900 bar of pressure applied for 30 min. The pressure was slowly released the cavitated cells collected in 50 ml falcon tubes. The tubes were centrifuged at 1000 rpm, 4° C. for 10 min, and the supernatant collected. This centrifugation and collection was repeated two more times until the supernatant was free of precipitate (membranes are still in suspension). The supernatant was poured into a 50 ml centrifuge tube and centrifuged at 10.000 rpm, 4° C. for 20 min. The supernatant was discarded and the pellet re-suspended in 750 μl membrane binding buffer using a chilled 1 ml syringe with 25G5/8 needle to re-suspend membranes. The protein concentration was determined using the BioRad Protein Assay Dye Reagent according to the manufacturers instructions. The protein concentration was adjusted to 5 mg/ml and aliquots snap-frozed and stored at −80 C until use.
Membranes were thawed rapidly; diluted with binding buffer (25 mM Hepes+5 mM MgCl2, 1 mM CaCl2, 2.5 mM EDTA and 0.2% BSA) to a protein concentration of 0.8 ug/30 ul and placed on ice. 96-well plates (U-bottom wells) were prepared with serial dilutions (8 doses, 40 ul/w) of the test compounds. Membranes (30 uL/well) were then added, and incubated with test ligands for 30 min at room temperature with shaking. […] Binding was terminated by filtration through GF/B filters (presoaked with 0.1% polyethylenimine) with a Brandel 96-well harvester. The filters were washed with ice-cold binding buffer (150 ml/plate) and allowed to air-dry for 30 min. 50 ul MicroScient-20 cocktail was added to each dried well, the plates were sealed, and counted for 2 min/well using a TopCount scintillation counter (Packard).

Ghrelin receptor = Ghrelin receptor (Homo sapiens, UniProt Q92847); assay: Receptor Selection and Amplification Technology (R-SAT) assay; type: cell-based; parameters: expressed in transfected cells; host or cells: NIH3T3; details: for Emax: read-out: RSAT Eff(%)
[1] = Binding pKi, displacement of 125I-ghrelin (0.053 nM), membranes of HEK293 cells transfected with GHSR1a, Cheng-Prussoff, '—' not defined
[2] = […], '—' not defined (nd used separately), read-out: RSAT pIC50 (converted)
[3] = displacement of 125I-ghrelin (0.053 nM), membranes of HEK293 cells transfected with GHSR1a, Cheng-Prussoff, '—' not defined, read-out: Binding pKi (converted)
[4] = negative logarithm of ligand concentration causing 50% inhibition of constitutive receptor response, transfected NIH3T3 cells, '—' not defined (nd used separately), read-out: RSAT pIC50 (converted)
[5] = percent inhibition at saturating ligand, normalized to reference ligand Substance P analog = 100%

T1 sequence (Q92847 whole entry): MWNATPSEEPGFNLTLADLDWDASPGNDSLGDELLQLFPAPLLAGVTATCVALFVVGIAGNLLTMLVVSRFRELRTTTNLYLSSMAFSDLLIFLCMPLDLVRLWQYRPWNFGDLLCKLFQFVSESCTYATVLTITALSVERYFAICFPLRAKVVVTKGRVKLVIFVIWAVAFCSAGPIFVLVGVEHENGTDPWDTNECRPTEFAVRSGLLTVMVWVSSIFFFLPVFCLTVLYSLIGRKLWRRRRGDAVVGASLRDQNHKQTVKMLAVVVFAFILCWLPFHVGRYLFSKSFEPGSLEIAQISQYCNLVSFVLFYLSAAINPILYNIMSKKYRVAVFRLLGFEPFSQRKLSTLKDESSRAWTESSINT
Ghrelin receptor, sequence (Q92847 whole entry): as above

Row | SMILES | Ki (GHSR1a receptor; [1]) [nM] | IC50 (Ghrelin receptor; [2]) [nM] | Emax (Ghrelin receptor) [%] | other results
1 | COc1cccc2c(C(=O)NCc3cccc(C)c3)cn(CCCN3C4CCC3CC(Oc3ccc(Cl)cc3)C4)c12 (stereo not shown) | 50.1 | 0.631 | 92 | 
2 | COc1cccc2c(C(=O)C3CC3)cn(CCCN3CCCN(Cc4ccccc4Cl)CC3)c12 | 7.94 | 0.794 | 99 | 
3 | COc1cccc2c(C(=O)NCc3cccc(Cl)c3)cn(CCCN3C4CCC3CC(CCc3ccccc3)C4)c12 (stereo not shown) | 7.94 | 1 | 115 | 
4 | CCCCC1CCN(CCCn2cc(C(=O)NCc3cccc(Cl)c3)c3cccc(OC)c32)CC1 |  |  | 94 | Ki (GHSR1a receptor; Binding pKi): 50.1 nM; IC50 (Ghrelin receptor; RSAT pIC50): 3.98 nM
5 | CCCCC1CCN(CCCn2cc(C(=O)C3CC3)c3cccc(OC)c32)CC1 | 398 | 3.98 | 95 | 
6 | CCCCC1CCN(CCCn2cc(C(=O)c3ccccc3)c3cccc(OC)c32)CC1 | 200 | 5.01 | 98 | 
7 | CC(=O)c1cn(CCCN2CCC(c3nc4ccccc4s3)CC2)c2c(Cl)cccc12 | 398 | 5.01 | 117 | 
8 | COc1ccccc1C1CCN(CCCn2cc(C(=O)C3CC3)c3cccc(OC)c32)CC1 | 158 | 5.01 | 102 | 
9 | COc1cccc2c(C(=O)NCC(C)C)cn(CCCN3C4CCC3CC(CC(=O)c3ccccc3)C4)c12 (stereo not shown) | 50.1 | 7.94 | 145 | 
10 | COc1cccc2c(C(=O)NCc3cccc(C)c3)cn(CCCN3CCC(Oc4ccc(Cl)cc4)CC3)c12 | 126 | 7.94 | 115 | 
11 | COc1cccc2c(C(=O)C3CC3)cn(CCCN3C4CCC3CC(CC(=O)c3ccc(Cl)cc3)C4)c12 (stereo not shown) | 39.8 | 7.94 | 70 | 
12 | CC(=O)c1cn(CCCN2C3CCC2CC(CC(=O)c2ccccc2)C3)c2c(Br)cccc12 (stereo not shown) | 100 | 7.94 | 111 | 
13 | COc1cccc2c(C(=O)NCc3cccc(C)c3)cn(CCCN3C4CCC3CC(CC(=O)c3ccc(Cl)cc3)C4)c12 (stereo not shown) | 15.8 | 10 | 110 | 
14 | COc1cccc2c(C(=O)NCc3cccc(C)c3)cn(CCCN3CCC(Oc4ccccc4Cl)CC3)c12 | 79.4 | 12.6 | 96 | 
15 | COc1cccc2c(C(=O)NCc3cccc(C)c3)cn(CCCN3CCCN(CCc4ccccc4)CC3)c12 | 15.8 | 12.6 | 110 | 
16 | COc1cccc2c(C(=O)NCc3cccc(C)c3)cn(CCCN3CCCN(Cc4ccccc4Cl)CC3)c12 | 79.4 | 15.8 | 119 | 
17 | COc1cccc2c(C(=O)NCc3cccc(C)c3)cn(CCCN3CCCN(Cc4ccc(F)cc4)CC3)c12 | 100 | 15.8 | 129 | 
18 | COc1cccc2c(C(C)=O)cn(CCCN3CCC(N(C4CC4)S(=O)(=O)c4ccccc4)CC3)c12 | 2510 | 15.8 | 105 | 
19 | COc1cccc2c(C(=O)c3ccccc3)cn(CCCN3CCCN(CCc4ccccc4)CC3)c12 | 25.1 | 15.8 | 124 | 
20 | COc1cccc2c(C(=O)NCc3cccc(Cl)c3)cn(CCCN3CCCN(CCc4ccccc4)CC3)c12 | 158 | 20 | 125 | 

Row | SMILES | Ki (GHSR1a receptor; [1]) [nM] | IC50 (Ghrelin receptor; [2]) [nM] | Emax (Ghrelin receptor) [%] | other results
21 | COc1cccc2c(C(=O)NCc3cccc(C)c3)cn(CCCN3[C@@H]4CC[C@H]3CC(CC(=O)c3ccccc3)C4)c12 (stereo partly shown) | 63.1 |  |  | 
22 | CC(=O)c1c(C)n(CCCN2C3CCC2CC(CCc2ccccc2)C3)c2c(Br)cccc12 (stereo not shown) |  |  |  | Ki (GHSR1a receptor; [3]): 200 nM
23 | O=C(c1cn(CCCN2C3CCC2CC(CCc2ccc(Cl)cc2)C3)c2ncccc12)C(F)(F)F (stereo not shown) |  |  |  | Ki (GHSR1a receptor; [3]): 251 nM
24 | CCc1cccc2c(C(C)=O)cn(CCCN3C4CCC3CC(CC(=O)c3ccc(Cl)cc3)C4)c12 (stereo not shown) |  |  |  | Ki (GHSR1a receptor; [3]): 501 nM
25 | CC(=O)c1c(C)n(CCCN2CCC(CCOc3ccc(Cl)cc3)CC2)c2c(Br)cccc12 |  |  |  | Ki (GHSR1a receptor; [3]): 631 nM
26 | COc1cccc2c(C(=O)Cc3ccccc3)cn(CCCN3CCN(CCOc4ccc(Cl)c5ccccc45)CC3)c12 |  |  | 46 | 
27 | CC(=O)c1cn(CCCN2CCN(CCOc3ccc(Cl)cc3)CC2)c2c(C#N)cccc12 |  |  | 4 | 
28 | CC(=O)c1cn(CCCNCCOc2ccccc2)c2c(C#N)cccc12 |  |  | 11 | 
29 | CC(=O)c1cn(CCCN2CCN(CCOc3ccc(Cl)c4ccccc34)CC2)c2c(C#N)cccc12 |  |  | 53 | 
30 | CC(=O)c1cn(CCCN2CCCC(Cc3ccccc3Cl)C2)c2c(C)cccc12 (stereo not shown) |  |  | 38 | 
31 | CC(=O)c1cn(CCCN2CCC(Cc3ccccc3Cl)C2)c2c(C)cccc12 (stereo not shown) |  |  | 47 | 
32 | CC(=O)c1cn(CCCN2C3CCC2CC(CC(=O)c2ccc(Cl)cc2)C3)c2c(C)cccc12 (stereo not shown) |  |  | 19 | 
33 | CC(=O)c1cn(CCCN2CCC3(CC2)CC(=O)c2ccccc2O3)c2c(Br)cccc12 |  |  | 3 | 
34 | CC(=O)c1cn(CCCN2CCCC(Cc3ccccc3Cl)C2)c2c(Br)cccc12 (stereo not shown) |  |  | -18 | 
35 | CC(=O)c1cn(CCCN2C3CCC2CC(CC(=O)c2ccc(Cl)cc2)C3)c2c(Br)cccc12 (stereo not shown) |  |  | 33 | 
36 | CC(=O)c1cn(CCCN2C3CCC2CC(Oc2ccccc2Cl)C3)c2c(Br)cccc12 (stereo not shown) |  |  | 65 | 
37 | COc1cccc2c(C(=O)C3CC3)cn(CCCN3CCCC(Cc4ccccc4Cl)C3)c12 (stereo not shown) |  |  | 28 | 
38 | CC(=O)c1cn(CCCN2CCC3(CC2)CC(=O)c2ccccc2O3)c2c(Cl)cccc12 |  |  | 40 | 
39 | CC(=O)c1cn(CCCN2CCCC(Oc3ccc(Cl)cc3)C2)c2c(Cl)cccc12 (stereo not shown) |  |  | 7 | 
40 | CC(=O)c1cn(CCCN2CCCC(Cc3ccccc3Cl)C2)c2c(Cl)cccc12 (stereo not shown) |  |  | 47 | 

Row | SMILES | Ki (GHSR1a receptor; [1]) [nM] | IC50 (Ghrelin receptor; [2]) [nM] | Emax (Ghrelin receptor) [%] | other results
41 | CC(=O)c1cn(CCCN2CCC(Cc3ccccc3Cl)C2)c2c(Cl)cccc12 (stereo not shown) |  |  | 37 | 
42 | CC(=O)c1cn(CCCN2C3CCC2CC(Oc2ccccc2Cl)C3)c2c(Cl)cccc12 (stereo not shown) |  |  | 60 | 
43 | COc1cccc2c(C(=O)c3ccccc3)cn(CCCN3CCCC(Oc4ccc(Cl)cc4)C3)c12 (stereo not shown) |  |  | 48 | 
44 | COc1cccc2c(C(=O)NCc3cccc(C)c3)cn(CCCN3CCCC(Oc4ccc(Cl)cc4)C3)c12 (stereo not shown) |  |  | 14 | 
45 | COc1cccc2c(C(=O)NCc3cccc(Cl)c3)cn(CCCN3CCCC(Oc4ccc(Cl)cc4)C3)c12 (stereo not shown) |  |  | 31 | 
46 | CC(=O)c1c(C)n(CCCNCCOc2ccccc2)c2c(Br)cccc12 |  |  | 5 | 
47 | CCc1cccc2c(C(C)=O)cn(CCCN3CCN(CCOc4ccc(Cl)c5ccccc45)CC3)c12 |  |  | 29 | 
48 | CC(=O)c1cn(CCCNC2Cc3ccccc3C2)c2c(C#N)cccc12 |  |  | 6 | 
49 | CC(=O)c1cn(CCCN2CCCC(Oc3ccc(Cl)cc3)C2)c2c(C)cccc12 (stereo not shown) |  |  | -2 | 
50 | COc1cccc2c(C(=O)NCC(C)C)cn(CCCN3CCCC(Oc4ccc(Cl)cc4)C3)c12 (stereo not shown) |  |  | 9 | 
51 | COc1cccc2c(C(C)=O)cn(CCCN3CCC(Oc4ccc(F)cc4)CC3)c12 [drawing 241] |  |  |  | IC50 (Ghrelin receptor; [4]): 2.51 nM; RSAT Eff(%) (Ghrelin receptor; [5]): 104%
52 | COc1cccc2c(C(C)=O)cn(CCCN3CCC(Oc4ccc(F)cc4)CC3)c12 [drawing 256] |  | 3.98 | 119 | 
53 | CC(=O)c1cn(CCCN2CCC(c3nc4ccccc4s3)CC2)c2ccccc12 [drawing 462] |  |  |  | IC50 (Ghrelin receptor; [4]): 100 nM; Emax (Ghrelin receptor; [5]): 115%
54 | CC(=O)c1cn(CCCN2CCC(c3nc4ccccc4s3)CC2)c2ccccc12 [drawing 466] |  |  |  | IC50 (Ghrelin receptor; [4]): 126 nM; RSAT Eff(%) (Ghrelin receptor; [5]): 99%
55 | CC(=O)c1cn(CCCN2CCC(Oc3ccccc3Cl)CC2)c2ccccc12 [drawing 499] |  |  |  | Emax (Ghrelin receptor; [5]): 105%
56 | CC(=O)c1cn(CCCN2CCC(Oc3ccc(F)cc3)CC2)c2ccccc12.O=C(O)C(=O)O [drawing 520] |  |  |  | IC50 (Ghrelin receptor; [4]): 251 nM; RSAT Eff(%) (Ghrelin receptor; [5]): 128%
57 | COc1ccccc1C1CCN(CCCn2cc(C(C)=O)c3ccccc32)CC1 [drawing 533] |  |  |  | IC50 (Ghrelin receptor; [4]): 316 nM; Emax (Ghrelin receptor; [5]): 109%
58 | O=C(NCc1cccc(Cl)c1)c1cn(CCCN2CCC(Oc3ccc(F)cc3)CC2)c2ccccc12.O=C(O)C(=O)O [drawing 596] |  |  |  | RSAT Eff(%) (Ghrelin receptor): 142%
59 | COc1cccc2c(C(=O)NCC(C)C)cn(CCCN3CCC(c4nc5ccccc5s4)CC3)c12 [drawing 706] | 501 |  |  | 
60 | CCCOC1CCN(CCCn2cc(C(C)=O)c3cccc(OC)c32)CC1 [drawing 713] |  |  |  | Ki (GHSR1a receptor; [3]): 1260 nM
